Results: patent US5885786A, “Methods for screening of substances for inhibition of multidrug resistance” (priority 1996, dated 1999)
“Also recorded” adds a separate entry of the source. *1 amine or outer side, *2 acyl side, *3 side chain or, on linkers, in order; H or OH if unused. Where a SMILES comes first, the peptide text is derived from it. Bridges are numbered along the chain shown (N, C = ends). Roman numbers before positions name the chains, in order. [ ]: non-standard residue; d: D form. Actinocin(9to1) = Cc1c2oc3c(C)ccc(C(=O)[*:1])c3nc-2c(C(=O)[*:2])c(N)c1=O; NMeV = CN[C@H](C(=O)O)C(C)C; Sar = CNCC(=O)O

What was measured:
[1] = cited from earlier work; for absorption (in words): oral or unspecified
[2] = test system: glycosylation of ceramide in MCF-7-AdrR cells (UDP-glucose:ceramide glucosyltransferase); assay: Glycosylation of C6-ceramide and natural glycosphingolipid synthesis, [3H]galactose labeling; assay type: cell-based
Protocol: FIG. 14A and FIG. 14B. Effect of Tamoxifen on Ceramide Synthesis and Glycosylation in MCF-7-AdrR Cells. FIG. 14: A Influence of tamoxifen on ceramide synthesis. The experiment was conducted as described in the legend to FIG. 13. Aliquots of the total lipid extract were based-hydrolyzed as described in Example I, separated by TLC using solvent system IV, and the resolved [^3 H]ceramide was quantitated by liquid scintillation spectrometry. Results are the mean±SEM of duplicate determinations from two separate experiments. FIG. 14B: Effect of tamoxifen on glycosylation of C6 -ceramide. Cells, in 100×20 mm culture dishes, were preincubated without or with 5.0 μM tamoxifen for 30 min, followed by incubation without or with 5.0 μM C6 -ceramide:BSA (prepared at a 1:1 molar ratio) for an additional 30 min. Cells were labeled thereafter with 1.0 μCi/ml [^3 H]galactose for 24 h. [3H]Galactose uptake was determined and found to be similar in all experimental points (1.0×10^6 cpm/dish). The total extracted lipid was applied to TLC separation and [^3 H]glycosphingolipids were analyzed as described in the legend to FIG. 10. The autoradiography of a representative chromatogram is shown.
In order to explore this notion, a short-chain ceramide analog with a 6-carbon N-acyl group (C6 -ceramide), was utilized as a substrate.

[3] = cited from earlier work
[4] = test system: lipid-1 and -2 formation in MCF-7-AdrR cells; assay: Effect of inhibitors of sphingolipid biosynthesis on lipid-1 and -2 formation; assay type: cell-based
Protocol: FIG. 5A, FIG. 5B, and FIG. 5C. Effect of inhibitors of sphingolipid biosynthesis on lipid-1 and -2 formation in MCF-7-AdrR cells. Cells, grown to near-confluency in 100×20 mm culture dishes, were radiolabeled with [^3 H]palmitic acid (FIG. 5A), or [^3 H]serine (FIG. 5B, FIG. 5C), in the presence or absence of 10 mM L-cycloserine (FIG. 5A), 50 μM FB1 (FIG. 5B), or 20 μM PPMP (FIG. 5C), for 24 h in RPMI-1640 medium containing 0.1% BSA. Extracted lipids were analyzed by TLC using solvent system II (FIG. 5A, FIG. 5B), or solvent system III (FIG. 5C) as described in Example I. Lac-cer, lactosylceramide.
The effects of various inhibitors of sphingolipid biosynthesis were investigated, using MCF-7-AdrR cells, labeled with either [^3 H]palmitic acid, or [^3 H]serine. The first enzymatic reaction in sphingoid base biosynthesis, catalyzed by serine:palmitoyltransferase, is the formation of 3-ketosphinganine from serine and palmitoyl-CoA (FIG. 1).

[5] = cited from earlier work; remark: listed apart in the source
[6] = test system: MCF-7-AdrR cells; assay: Cell proliferation (MTS) assay: adriamycin toxicity and chemosensitization; settings: for effect on adriamycin toxicity / chemosensitization (in words): 5.0 μM tested drug + adriamycin, 72 h, FIG. 15A, 16B
Text: FIG. 15A and FIG. 15B. […] FIG. 15B: Glycosylceramide levels in MDR Cells following drug treatment. […] In order to avoid differences in [^3 H]glycosylceramide values which account for cell death, the same amount of total radioactive lipid from each sample was applied to TLC separation.
FIG. 16A and FIG. 16B. […] FIG. 16A: Effect of PPMP on cellular glycosylceramide levels. […] [^3 H]Glycosylceramide was quantitated as described in the legend to FIG. 9.
Vehicle (acetone, ethanol) was always added to control (minus drug) wells. The cytotoxic activity of a drug was determined using the Promega CellTiter 96™ AQueous MTS cell proliferation assay kit. Each experimental point was performed in six replicates. MTS/PMS solution (20 μl/well) was aliquoted into all wells, and the cells were incubated for 2-3 h, or until an O.D. of 0.9-1.0 was obtained as a highest reading. Thereafter, absorbence at 490 nm was recorded using an ELISA plate reader (Molecular Devices, San Diego, Calif.).

[7] = test system: glycosylceramide synthesis in MCF-7-AdrR cells; assay: Effect of PPMP on cellular glycosylceramide levels, [3H]serine 24 h; assay type: cell-based; settings: FIG. 16A
Text: FIG. 16A and FIG. 16B. […] FIG. 16A: Effect of PPMP on cellular glycosylceramide levels.

[8] = test system: P388-adriamycin resistant cells; settings: literature; cited from earlier work
[9] = test system: acid sphingomyelinase; settings: literature; cited from earlier work
[10] = in vivo; cited from earlier work
[11] = test system: OVCAR-3 (MDR ovarian carcinoma); settings: clinically relevant concentrations (Rogan et al., 1984); cited from earlier work
[12] = test system: P-glycoprotein; settings: literature; cited from earlier work
[13] = test system: glycosylceramide formation in MCF-7-AdrR cells; assay: Inhibition of [3H]glycosylceramide formation in MCF-7-AdrR cells (TLC, liquid scintillation); assay type: cell-based; settings: 5.0 μM drug, 24 h, MCF-7-AdrR, FIG. 11B; read-out: inhibition of glycosylceramide formation (cpm tritium)
Protocol: FIG. 9. […] Values represent the mean of determinations from three separate experiments, and are calculated as the percent glycosylceramide in the total lipid tritium extract.
FIG. 11A and FIG. 11B. […] FIG. 11: A Autoradiography. […] For autoradiography equal aliquots by volume of total lipid extract were applied to TLC plates. […] [^3 H]Glycosylceramide, visualized in panel A, was quantitated as described in the legend to FIG. 9. Each value represents mean±SEM of determinations from three separate experiments.
FIG. 12. […] [^3 H]Glycosylceramide was quantitated as described in the legend to FIG. 9. Results represents the mean±SEM of determinations from three separate experiments.
MCF-7 cells, grown in medium containing 10% FBS, were switched to media containing 5% FBS. Cell lipids were radiolabeled by adding [^3 H]serine (2.0 μCi/ml), [^3 H]palmitic acid (1.0 μCi/ml), or [^3 H]galactose (1.0 μCi/ml) to the culture medium for the indicated times. Other radiolabels can be substituted. Cells were then rinsed twice with PBS, pH 7.4, and 2 ml of ice-cold methanol containing 2% acetic acid was added. The cells were scraped free, transferred to glass test tubes (13×100 mm), and lipids were extracted by the addition of chloroform (2 ml) followed by water (2 ml). The resulting organic lower phase was withdrawn and evaporated under a stream of nitrogen. Lipids were resuspended in 100 μL of chloroform/methanol (1:1, v/v), and aliquots were applied to TLC plates.
Lipid analysis was carried out by TLC using solvent system I: chloroform/methanol/ammonium hydroxide (40:10:1, v/v) for glycosylceramide separation, solvent system II: chloroform/methanol/water (60:40:8, v/v) for sphingoglycolipid separation, or solvent system III: chloroform/methanol/acetic acid/water (50:30:7:3, v/v) for sphingomyelin separation. For determination of ceramides, an aliquot of the chloroform-soluble lipids was base-hydrolyzed in 0.1N KOH in methanol for 1 h at 37° C., lipids were re-extracted, and separated by TLC using solvent system IV: hexane/diethyl ether/formic acid (60:40:1, v/v).
Radiochromatograms were sprayed with EN^3 HANCE, and exposed for 3-7 days for autofluorgraphy. TLC areas, aligned with bands on the autoradiographs or with iodine-stained commercial lipid standards, were scraped from the plate. Water (0.5 ml) was added to the plate scrapings followed by 4.5 ml of EcoLume counting fluid, and the samples were quantitated by liquid scintillation spectrometry.

[14] = 5.0 μM C6-ceramide, FIG. 14B, […]
[15] = 10 mM L-cycloserine, [3H]palmitic acid, FIG. 5A

Cc1c2oc3c(C)ccc(C(=O)N[C@@H]4C(=O)N[C@H](C(C)C)C(=O)N5CCC[C@H]5C(=O)N(C)CC(=O)N(C)[C@@H](C(C)C)C(=O)O[C@@H]4C)c3nc-2c(C(=O)N[C@@H]2C(=O)N[C@H](C(C)C)C(=O)N3CCC[C@H]3C(=O)N(C)CC(=O)N(C)[C@@H](C(C)C)C(=O)O[C@@H]2C)c(N)c1=O [Actinomycin D] (I: T[dV]P[Sar][NMeV] / II: T[dV]P[Sar][NMeV]; ester I:1-I:C, II:1-II:C; linker I:N-II:N via Actinocin(9to1))
excreted into the urine ([1]; in vivo, iv): 10% | half-life ([1]; in vivo, iv): about 36 hr | blood-brain barrier passage (in words) ([1]; in vivo): does not pass the blood-brain barrier | dose excreted intact into the bile (in words) ([1]; in vivo): Half of the dose

CCCCCCCCCCCCC/C=C/[C@@H](O)[C@H](CO)NC(=O)CCCCC [C6 -ceramide]
natural glycosylceramide level (in words) ([2]; 5.0 μM C6-ceramide, FIG. 14B): not altered | reduction of ganglioside synthesis [2, 14]: 35% | reduction of natural lactosylceramide synthesis [2, 14]: 33% | formation of C6-glycosylceramide (in words) ([2]; cells incubated with C6-ceramide): clearly visible

O=NN(CCCl)C(=O)NCCCl [Carmustine, 1,3bis (2-chloroethyl)-1-nitrosourea]
solubility in water (in words) [3]: poorly soluble in water

CCCCC(C)C(OC(=O)CC(CC(=O)O)C(=O)O)C(CC(C)CC(O)CCCCC(O)CC(O)C(C)N)OC(=O)CC(CC(=O)O)C(=O)O (stereo not shown) [FB1]
level of both lipid-1 and -2 (in words) ([4]; 50 μM FB1, [3H]serine, FIG. 5B): profound reduction

N[C@H]1CONC1=O [L-cycloserine]
lipid-1 formation (in words) [4, 15]: almost complete disappearance | lipid-2 formation (in words) [4, 15]: major inhibition

O=NN(CCCl)C(=O)NC1CCCCC1 [Lomustine, 1-(2-chloro-ethyl)-3-cyclohexyl-1 nitrosourea]
ionization (in words) ([3]; physiological pH): relatively unionized | solubility in water (in words) [3]: relatively insoluble | tissue levels vs plasma levels (in words) ([1]; 15 minutes after intravenous administration): comparable to plasma levels | excretion of radioactivity as degradation products (in words) ([1]; within 24 hours, oral 30 mg/m^2 to 100 mg/m^2): about half

CO[C@@]12[C@H](COC(N)=O)C3=C(C(=O)C(C)=C(N)C3=O)N1C[C@@H]1N[C@@H]12 [Mitomycin]
fraction of dose excreted unchanged in the urine ([5]; human, in vivo, iv): Approximately 10% | clearance from the serum (in words) ([5]; intravenous): rapidly cleared

CCCCCCCCCCCCCCCC(=O)NC(CN1CCOCC1)C(O)c1ccccc1 (stereo not shown) [PPMP]
effect on adriamycin toxicity / chemosensitization (in words) [6]: clear sensitization; also recorded: effectively decreased cell survival | effect of the substance alone on cell survival (in words) ([6]; MCF-7-AdrR, alone): no influence itself on cell viability; also recorded: no effect | inhibition at 5 µM ([7]; 24 h, 5.0 μM PPMP, read-out: maximal reduction in cellular glycosylceramide levels): 86% | IC50 ([7]; PPMP, [3H]serine 24 h, read-out: IC50 for inhibition of glycosylceramide formation): 900 nM | ceramide levels (in words) ([4]; 20 μM PPMP, FIG. 5C): elevation in ceramide levels | lactosylceramide and gangliosides (in words) ([4]; 20 μM PPMP, FIG. 5C): concomitant reduction | formation of lipid-1 and -2 (in words) ([4]; 20 μM PPMP, [3H]serine, FIG. 5C): blocked completely

COc1ccc(CCN(C)CCCOc2ccc(S(=O)(=O)c3c(C(C)C)cn4ccccc34)cc2)cc1OC [SR33557]
reversal of MDR / adriamycin resistance in P388 cells (in words) [8]: reverse MDR | inhibition of acid sphingomyelinase (in words) [9]: inhibition of acid sphingomyelinase

CC[C@]1(O)C[C@H]2CN(CCc3c([nH]c4ccccc34)[C@@](C(=O)OC)(c3cc4c(cc3OC)N(C=O)[C@H]3[C@@](O)(C(=O)OC)[C@H](OC(C)=O)[C@]5(CC)C=CCN6CC[C@]43[C@@H]65)C2)C1 [Vincristine]
tolerability / toxicity (in words) [10]: sever neurological toxicity | distribution in blood cells (in words) ([1]; in vivo): extensively concentrated in platelets | plasma protein binding (in words) ([1]; in vivo): bind to plasma proteins | absorption (in words) [1]: Unpredictable absorption

N.N.[Cl][Pt][Cl] [cisplatin]
resistance of OVCAR-3 to the drug (in words) [11]: resistant | absorption (in words) [1]: not absorbed orally

COc1cc(C[C@H]2c3cc(OC)c(OC)cc3CCN2C)c(Oc2cc3c(cc2OC)-c2c(OC)c(OC)cc4c2[C@H](C3)N(C)CC4)cc1OC [thaliblastine]
reversal of MDR / adriamycin resistance in P388 cells (in words) [8]: reverses adriamycin resistance | binding to P-glycoprotein (in words) [12]: binds to P-glycoprotein

CCC(=C(c1ccccc1)c1ccccc1)c1ccccc1 [triphenylbutene]
effect on adriamycin toxicity / chemosensitization (in words) [6]: no effect | inhibition at 5 µM [13]: 13%
